From US5696151A, “Compounds useful for the inhibition of the replication of HIV-1 and HIV-1 mutants” (priority 1995, dated 1997)
Values after ≈ are worked out from the molar mass of the structure shown.

Assays:
Format in all cases: cell-based
HIV-1/Lys-138 = test: Inhibition of HIV-1 induced syncytium formation in CEM cells, RT mutant 138-Lys; settings: Human immunodeficiency virus 1, CCRF-CEM, 96 h, Table 2B, day 4, averages of 2 to 3 independent experiments, read-out: Antiviral Activity of Comparative Compounds EC50, 138-Lys
From the text: (§1) CEM cells were obtained from the American Tissue Cell Culture Collection (Rockville, Md.). HIV-1(IIIB) was originally obtained from the culture supernatant of persistently HIV-1-infected H9 cells and was provided by R. C. Gallo and M. Popovic (National Cancer Institute, National Institutes of Health, Bethesda, Md.). […] 67: 5353-5359 (1993); HIV-1/Lys-138 ("Lys-138") was selected for resistance against TSAO-m^3T as described in Balzarini et al, Virology 192: 246-253 (1993) and Balzarini et al, Proc. Nat. Acad. Sci. USA 90: 6952-6956 (1993); HIV-1/181-Cys ("181-Cys") was selected for resistance against pyridinone L-697,661 as described in Balzarini et al, Virology 192: 246-253 (1993); and HIV-1/188-His ("188-His") was selected for resistance against HEPT as described in Balzarini et al, Mol. Pharmocol. 44: 694-701 (1993). 188-His was then further converted to HIV-1/188-Leu "188-Leu") upon further passage in cell culture in the absence of the HEPT.
(§2) CEM cells were suspended at ≈300,000 cells per ml of culture medium and infected with approximately 100 CCID50 (CCID50 being the 50% cell culture infective dose) of HIV-1(IIIB) or one of the HIV-1 RT mutant strains described above. Then 100 μl of the infected cell suspensions was added to 200 μl microtiter plate wells containing 100 μl of appropriate serial (5-fold) dilutions of the test compounds. The inhibitory effect of the test compounds on HIV-1 induced syncytium formation in CEM cells was examined microscopically on day 4 post infection.

HIV-1/106-Ala = test: Inhibition of HIV-1 induced syncytium formation in CEM cells, RT mutant 106-Ala; settings: Human immunodeficiency virus 1, CCRF-CEM, 96 h, Table 2B, day 4, averages of 2 to 3 independent experiments, read-out: Antiviral Activity of Comparative Compounds EC50, 106-Ala
From the text: as §1, §2

in vitro = settings: human, cem cells, CC50 (50% cytostatic concentration), Table 2B; CEM cell proliferation; averages of 2 to 3 independent experiments
From the text: as §1
^b 50% cytostatic concentration (i.e., compound concentration require
to inhibit CEM cell proliferation by 50%)

HIV-1(IIIB) = test: Inhibition of HIV-1 induced syncytium formation in CEM cells, wild type; settings: Human immunodeficiency virus 1, IIIB, CCRF-CEM, 96 h, Table 2B, WT = HIV-1(IIIB), day 4, averages of 2 to 3 independent experiments, read-out: Antiviral Activity of Comparative Compounds EC50, WT
From the text: as §1, §2

HIV-1/100-Ile = test: Inhibition of HIV-1 induced syncytium formation in CEM cells, RT mutant 100-Ile; settings: Human immunodeficiency virus 1, CCRF-CEM, 96 h, Table 2B, day 4, averages of 2 to 3 independent experiments, read-out: Antiviral Activity of Comparative Compounds EC50, 100-Ile
From the text: as §1, §2

HIV-1/181-Cys = test: Inhibition of HIV-1 induced syncytium formation in CEM cells, RT mutant 181-Cys; settings: Human immunodeficiency virus 1, CCRF-CEM, 96 h, Table 2B, day 4, averages of 2 to 3 independent experiments, read-out: Antiviral Activity of Comparative Compounds EC50, 181-Cys
From the text: as §1, §2

Compound	EC50 (HIV-1/Lys-138)	EC50 (HIV-1/106-Ala)	CC50 (in vitro)	EC50 (HIV-1(IIIB))	EC50 (HIV-1/100-Ile)	EC50 (HIV-1/181-Cys)
Cc1occc1C(=O)Nc1ccc(Cl)c(C(=O)OC(C)C)c1 [Compound 48]	3.5 µg/mL (≈ 10.9 µM)	6.5 µg/mL (≈ 20.2 µM)	3.8 µg/mL (≈ 11.8 µM)	0.45 µg/mL (≈ 1.4 µM)	6.5 µg/mL (≈ 20.2 µM)	6 µg/mL (≈ 18.6 µM)
Cc1occc1C(=S)Nc1ccc(Cl)c(C(=O)OC(C)C)c1 [Compound 49]	0.6 µg/mL (≈ 1.78 µM)	0.6 µg/mL (≈ 1.78 µM)	5.2 µg/mL (≈ 15.4 µM)	0.007 µg/mL (≈ 0.0207 µM)	0.6 µg/mL (≈ 1.78 µM)	0.2 µg/mL (≈ 0.592 µM)
C=C(C)COC(=O)c1cc(NC(=O)c2ccoc2C)ccc1Cl [Compound 50]	1 µg/mL (≈ 3 µM)	1 µg/mL (≈ 3 µM)	3.7 µg/mL (≈ 11.1 µM)	0.15 µg/mL (≈ 0.449 µM)	5 µg/mL (≈ 15 µM)	1.9 µg/mL (≈ 5.69 µM)
C=C(C)COC(=O)c1cc(NC(=S)c2ccoc2C)ccc1Cl [Compound 51]	0.03 µg/mL (≈ 0.0858 µM)	0.03 µg/mL (≈ 0.0858 µM)	6.7 µg/mL (≈ 19.2 µM)	0.006 µg/mL (≈ 0.0172 µM)	0.8 µg/mL (≈ 2.29 µM)	0.1 µg/mL (≈ 0.286 µM)
Cc1occc1C(=O)Nc1ccc(Cl)c(COC(C)(C)C)c1 [Compound 52]	4 µg/mL (≈ 12.4 µM)	5.5 µg/mL (≈ 17.1 µM)	6.2 µg/mL (≈ 19.3 µM)	0.7 µg/mL (≈ 2.18 µM)	8.5 µg/mL (≈ 26.4 µM)	≥ 10 µg/mL
Cc1occc1C(=S)Nc1ccc(Cl)c(COC(C)(C)C)c1 [Compound 53]	0.08 µg/mL (≈ 0.237 µM)	0.29 µg/mL (≈ 0.858 µM)	18 µg/mL (≈ 53.3 µM)	0.03 µg/mL (≈ 0.0888 µM)	0.85 µg/mL (≈ 2.52 µM)	0.55 µg/mL (≈ 1.63 µM)
Cc1occc1C(=O)Nc1ccc(Cl)c(C(=O)OC(C)C2CC2)c1 (stereo not drawn) [Compound 54]	> 10 µg/mL	5 µg/mL (≈ 14.4 µM)	44 µg/mL (≈ 127 µM)	0.6 µg/mL (≈ 1.73 µM)	> 10 µg/mL	1 µg/mL (≈ 2.88 µM)
Cc1occc1C(=S)Nc1ccc(Cl)c(C(=O)OC(C)C2CC2)c1 (stereo not drawn) [Compound 55]	0.18 µg/mL (≈ 0.495 µM)	0.08 µg/mL (≈ 0.22 µM)	17 µg/mL (≈ 46.7 µM)	0.009 µg/mL (≈ 0.0247 µM)	0.65 µg/mL (≈ 1.79 µM)	0.11 µg/mL (≈ 0.302 µM)
COc1ccc(NC(=O)c2ccoc2C)cc1CC(=O)OC(C)C [Compound 56]	≥ 10 µg/mL	6.5 µg/mL (≈ 19.6 µM)	52 µg/mL (≈ 157 µM)	0.7 µg/mL (≈ 2.11 µM)	> 10 µg/mL	> 10 µg/mL
COc1ccc(NC(=S)c2ccoc2C)cc1CC(=O)OC(C)C [Compound 57]	0.08 µg/mL (≈ 0.23 µM)	0.2 µg/mL (≈ 0.576 µM)	> 100 µg/mL	0.009 µg/mL (≈ 0.0259 µM)	1.3 µg/mL (≈ 3.74 µM)	0.5 µg/mL (≈ 1.44 µM)
Cc1sccc1C(=O)Nc1ccc(Cl)c(C=NOC(C)(C)C)c1 [Compound 60]	1.57 µg/mL (≈ 4.47 µM)	1.6 µg/mL (≈ 4.56 µM)	14 µg/mL (≈ 39.9 µM)	0.23 µg/mL (≈ 0.656 µM)	4.5 µg/mL (≈ 12.8 µM)	3 µg/mL (≈ 8.55 µM)
Cc1sccc1C(=S)Nc1ccc(Cl)c(C=NOC(C)(C)C)c1 [Compound 61]	0.05 µg/mL (≈ 0.136 µM)	0.2 µg/mL (≈ 0.545 µM)	12 µg/mL (≈ 32.7 µM)	0.01 µg/mL (≈ 0.0273 µM)	0.2 µg/mL (≈ 0.545 µM)	0.2 µg/mL (≈ 0.545 µM)
CC(C)OC(=O)c1cc(NC(=O)c2ccccc2)ccc1Cl [Compound 62]	5 µg/mL (≈ 15.7 µM)	5 µg/mL (≈ 15.7 µM)	6.2 µg/mL (≈ 19.5 µM)	0.4 µg/mL (≈ 1.26 µM)	3.5 µg/mL (≈ 11 µM)	5.5 µg/mL (≈ 17.3 µM)
CC(C)OC(=O)c1cc(NC(=S)c2ccccc2)ccc1Cl [Compound 63]	2.2 µg/mL (≈ 6.59 µM)	5 µg/mL (≈ 15 µM)	4.3 µg/mL (≈ 12.9 µM)	0.05 µg/mL (≈ 0.15 µM)	4.5 µg/mL (≈ 13.5 µM)	5 µg/mL (≈ 15 µM)
O=C(OC1CCCCC1)c1cc(NC(=S)c2ccccc2F)ccc1Cl [Compound 65]	0.09 µg/mL (≈ 0.23 µM)	0.26 µg/mL (≈ 0.663 µM)	19 µg/mL (≈ 48.5 µM)	0.04 µg/mL (≈ 0.102 µM)	0.3 µg/mL (≈ 0.766 µM)	0.25 µg/mL (≈ 0.638 µM)
CCC(CC)OC(=O)c1cc(NC(=O)c2ccccc2N)ccc1Cl [Compound 66]	> 10 µg/mL	9 µg/mL (≈ 24.9 µM)	25 µg/mL (≈ 69.3 µM)	0.6 µg/mL (≈ 1.66 µM)	> 10 µg/mL	≥ 10 µg/mL
CCC(CC)OC(=O)c1cc(NC(=S)c2ccccc2N)ccc1Cl [Compound 67]	5.5 µg/mL (≈ 14.6 µM)	≥ 10 µg/mL	29 µg/mL (≈ 76.9 µM)	0.75 µg/mL (≈ 1.99 µM)	≥ 10 µg/mL	> 10 µg/mL
